Data as given in patent publication US8686143B2, “Compounds useful as inhibitors of Janus kinases” (Vertex Pharmaceuticals Incorporated, priority 2007, dated 2014).

target: T1, JAK3 (Homo sapiens, UniProt P52333); assay: JAK3 Inhibition Assay (33P incorporation into poly(Glu)4Tyr); assay type: biochemical; conditions: 1 nM JAK3, 5 μM ATP, 1 μM poly(Glu)4Tyr, 25° C.
T1 sequence (P52333 1-1124): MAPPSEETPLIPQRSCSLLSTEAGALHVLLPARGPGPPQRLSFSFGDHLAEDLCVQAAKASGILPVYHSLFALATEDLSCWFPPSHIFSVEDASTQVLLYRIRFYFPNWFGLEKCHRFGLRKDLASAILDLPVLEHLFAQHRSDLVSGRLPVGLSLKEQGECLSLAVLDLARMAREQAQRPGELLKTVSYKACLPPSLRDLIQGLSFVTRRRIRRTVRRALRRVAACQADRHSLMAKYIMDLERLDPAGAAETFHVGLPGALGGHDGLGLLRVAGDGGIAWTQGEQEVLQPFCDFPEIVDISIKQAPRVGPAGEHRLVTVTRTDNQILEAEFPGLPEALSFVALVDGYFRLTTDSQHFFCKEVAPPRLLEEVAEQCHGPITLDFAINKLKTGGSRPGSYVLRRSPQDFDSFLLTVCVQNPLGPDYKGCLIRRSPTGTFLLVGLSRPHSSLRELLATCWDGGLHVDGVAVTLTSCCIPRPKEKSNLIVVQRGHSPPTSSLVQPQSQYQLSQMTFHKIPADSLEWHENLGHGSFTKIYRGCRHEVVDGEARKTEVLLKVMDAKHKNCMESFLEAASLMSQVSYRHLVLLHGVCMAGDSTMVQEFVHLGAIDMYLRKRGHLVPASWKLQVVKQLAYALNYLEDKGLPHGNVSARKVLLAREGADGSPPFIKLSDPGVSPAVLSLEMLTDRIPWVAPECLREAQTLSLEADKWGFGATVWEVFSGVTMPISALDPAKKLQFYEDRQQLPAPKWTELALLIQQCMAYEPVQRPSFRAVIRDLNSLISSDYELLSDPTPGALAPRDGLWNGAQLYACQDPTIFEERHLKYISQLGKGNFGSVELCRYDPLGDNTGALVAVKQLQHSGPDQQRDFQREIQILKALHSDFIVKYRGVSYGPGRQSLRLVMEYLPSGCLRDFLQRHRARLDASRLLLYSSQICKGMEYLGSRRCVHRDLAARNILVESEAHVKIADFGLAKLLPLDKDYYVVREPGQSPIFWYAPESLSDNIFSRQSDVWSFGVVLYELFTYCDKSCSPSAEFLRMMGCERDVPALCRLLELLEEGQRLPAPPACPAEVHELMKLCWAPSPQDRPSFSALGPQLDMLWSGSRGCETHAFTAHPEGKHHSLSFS
Protocol: Compounds were screened for their ability to inhibit JAK3 using the assay shown below. Reactions were carried out in a kinase buffer containing 100 mM HEPES (pH 7.4), 1 mM DTT, 10 mM MgCl2, 25 mM NaCl, and 0.01% BSA. Substrate concentrations in the assay were 5 μM ATP (200 uCi/μmole ATP) and 1 μM poly(Glu)4Tyr. Reactions were carried out at 25° C. and 1 nM JAK3.
To each well of a 96 well polycarbonate plate was added 1.5 μl of a candidate JAK3 inhibitor along with 50 μlof kinase buffer containing 2 μM poly(Glu)4Tyr and 10 μM ATP. This was then mixed and 50 μl of kinase buffer containing 2 nM JAK3 enzyme was added to start the reaction. After 20 minutes at room temperature (25° C.), the reaction was stopped with 50 μl of 20% trichloroacetic acid (TCA) that also contained 0.4 mM ATP. The entire contents of each well were then transferred to a 96 well glass fiber filter plate using a TomTek Cell Harvester. After washing, 60 μl of scintillation fluid was added and ^33P incorporation detected on a Perkin Elmer TopCount.

Ki [µM]	Compound
≤ 1	CC(C)(Nc1ccnc(-c2ccc3nccnc3c2)n1)C(=O)NCC(F)(F)F [Compound 163]
1 to 10	Nc1cccc(Nc2nc(N)n(-c3ncc(F)c(N4CCCC4C(=O)NCC(F)(F)F)n3)n2)c1 (centres unmarked) [Compound 57]
1 to 10	O=C(NCC(F)(F)F)[C@H]1CCCN1c1ccnc(-c2ccc(O)cc2)n1 [Compound 147]
≤ 1	CN(C)C(=O)c1cc(-c2nccc(NC(C)(C)C(=O)NCC(F)(F)F)n2)c[nH]1 [Compound 132]
≤ 1	CC(C)(Nc1nc(-c2ccc(O)cc2)ncc1F)C(=O)NCC(F)(F)F [Compound 123]
1 to 10	Nc1nc(Nc2ccc([C@H]3CC[C@H](N4CCOCC4)CC3)cc2)nn1-c1ncc(F)c(N2CCC[C@@H]2C(=O)NCC(F)(F)F)n1 [Compound 49]
≤ 1	COc1ccc(Nc2nc(N)n(-c3nccc(N[C@H](C(=O)NCC(F)(F)F)C(C)C)n3)n2)cc1 [Compound 42]
10 to 50	O=C(NCC(F)(F)F)[C@H]1CCCN1c1ccnc(-c2ccc(=O)[nH]c2)n1 [Compound 83]
1 to 10	O=C(NCC(F)(F)F)[C@H]1CCCN1c1nc(-c2c[nH]c(C(=O)N3CCCC3)c2)ncc1F [Compound 119]
1 to 10	COc1ccc(Nc2nc(N)n(-c3ncc(F)c(NCC(=O)NCC(F)(F)F)n3)n2)cc1 [Compound 58]
1 to 10	CC(C)[C@@H](Nc1ccnc(-c2ccc3nccnc3c2)n1)C(=O)NCC(F)(F)F [Compound 164]
1 to 10	COc1ccc(Nc2nc(N)n(-c3ncc(F)c(N4CCC[C@@H]4C(=O)NCC(F)(F)F)n3)n2)cc1 [Compound 39]
≤ 1	O=C(NCC(F)(F)F)[C@H]1CCCN1c1ccnc(-c2ccc3ncsc3c2)n1 [Compound 155]
1 to 10	CC(=O)Nc1nc2ccc(-c3ncc(F)c(NC(C)(C)C(=O)NCC(F)(F)F)n3)cc2s1 [Compound 64]
1 to 10	COc1ccc(Nc2nc(N)n(-c3ncc(F)c(N[C@@H](C(=O)NCC(F)(F)F)C(C)C)n3)n2)cc1 [Compound 43]
1 to 10	CC(C)[C@@H](Nc1nc(-c2ccc3nccnc3c2)ncc1F)C(=O)NCC(F)(F)F [Compound 168]
10 to 50	CNC(=O)c1cc(-c2ncc(F)c(N3CCC[C@@H]3C(=O)NCC(F)(F)F)n2)c[nH]1 [Compound 115]
1 to 10	CC(C)(Nc1nc(-c2ccc3c(c2)OCO3)ncc1F)C(=O)NCC(F)(F)F [Compound 67]
1 to 10	C[C@H](Nc1nc(-n2nc(Nc3ccc(F)cc3)nc2N)ncc1F)C(=O)NCC(F)(F)F [Compound 45]
1 to 10	CC(C)[C@@H](Nc1ccnc(-c2c[nH]c(C(=O)NCC3CC3)c2)n1)C(=O)NCC(F)(F)F [Compound 112]

Ki [µM]	Compound
1 to 10	CC(C)[C@H](Nc1ccnc(-c2cccnc2N)n1)C(=O)NCC(F)(F)F [Compound 28]
10 to 50	O=C(NCC(F)(F)F)[C@H]1CCCN1c1nc(-c2ccc3c(c2)OCO3)ncc1F [Compound 88]
1 to 10	CC(C)(Nc1ccnc(-c2c[nH]c3ccc(Cl)cc23)n1)C(=O)NCC(F)(F)F [Compound 158]
10 to 50	C[C@H](Nc1nc(-c2ccc(N)nc2)ncc1F)C(=O)NCC(F)(F)F [Compound 6]
1 to 10	O=C(NCC(F)(F)F)[C@H]1CCCN1c1ccnc(-c2c[nH]c(C(=O)N3CCCC3)c2)n1 [Compound 130]
10 to 50	CNC(=O)c1cc(-c2ncc(F)c(N[C@@H](C(=O)NCC(F)(F)F)C(C)C)n2)c[nH]1 [Compound 103]
≤ 1	CC(C)[C@@H](Nc1ccnc(-c2ccc3ncsc3c2)n1)C(=O)NCC(F)(F)F [Compound 148]
≤ 1	CC(C)(Nc1ccnc(-c2c[nH]c(C(=O)N3CC=CC3)c2)n1)C(=O)NCC(F)(F)F [Compound 102]
10 to 50	O=C(NCC(F)(F)F)[C@H]1CCCN1c1ccnc(-c2c[nH]c3ccc(Cl)cc23)n1 [Compound 159]
≤ 1	CC(C)(Nc1ccnc(-c2c[nH]c(C(=O)N3CCCC3)c2)n1)C(=O)NCC(F)(F)F [Compound 101]
1 to 10	Nc1ncccc1-c1ncc(F)c(NCCC(=O)NCC(F)(F)F)n1 [Compound 30]
10 to 50	CN(C)C(=O)c1cc(-c2ncc(F)c(N3CCC[C@@H]3C(=O)NCC(F)(F)F)n2)c[nH]1 [Compound 129]
10 to 50	O=C(CCNc1nc(-c2cccnc2)ncc1F)NCC(F)(F)F [Compound 15]
≤ 1	CC(C)C(Nc1nc(-c2c[nH]c(C(=O)N3CC=CC3)c2)ncc1F)C(=O)NCC(F)(F)F (centres unmarked) [Compound 108]
10 to 50	CC(C)(Nc1nc(-c2ccc(=O)[nH]c2)ncc1F)C(=O)NCC(F)(F)F [Compound 84]
≤ 1	Nc1ncccc1-c1ncc(F)c(NCC(=O)NCC(F)(F)F)n1 [Compound 29]
1 to 10	CC(C)(Nc1ccnc(-c2cccnc2N)n1)C(=O)NCC(F)(F)F [Compound 31]
1 to 10	CC(C)[C@@H](Nc1ccnc(-c2c[nH]c(C(=O)N3CCCC3)c2)n1)C(=O)NCC(F)(F)F [Compound 113]
10 to 50	C[C@@H](Nc1nc(-c2cccnc2)ncc1F)C(=O)NCC(F)(F)F [Compound 20]
10 to 50	O=C(NCC(F)(F)F)[C@H]1CCCN1c1nc(-c2ccc3nccnc3c2)ncc1F [Compound 165]

same assay, conditions: at concentrations of 5.0 μM

inhibition of JAK3 at concentrations of 5.0 μM	Compound
did not inhibit	Nc1nc(NCC2CCCCC2)nn1-c1ncc(F)c(N2CCC[C@@H]2C(=O)NCC(F)(F)F)n1 [Compound 48]
did not inhibit	CCCNc1nc(N)n(-c2ncc(F)c(N3CCC[C@@H]3C(=O)NCC(F)(F)F)n2)n1 [Compound 54]
did not inhibit	Nc1nc(Nc2ccccc2Cl)nn1-c1ncc(F)c(N2CCC[C@@H]2C(=O)NCC(F)(F)F)n1 [Compound 41]

same assay, conditions: at concentrations of 50 μM

inhibition of JAK3 at concentrations of 50 μM	Compound
did not inhibit	C[C@@H](Nc1nc(-c2cccnc2F)ncc1F)C(=O)NCC(F)(F)F [Compound 17]
did not inhibit	COc1ccc(-c2nccc(N3CCC[C@@H]3C(=O)NCC(F)(F)F)n2)cc1 [Compound 150]
did not inhibit	O=C(NCC(F)(F)F)[C@H]1CCCN1c1nc(-c2ccc3c(c2)OCCO3)ncc1F [Compound 153]
did not inhibit	CC(C)NC(=O)c1cc(-c2ncc(F)c(N[C@@H](C(=O)NCC(F)(F)F)C(C)C)n2)c[nH]1 [Compound 105]
did not inhibit	O=C(CCNc1nc(-c2ccc(F)nc2)ncc1F)NCC(F)(F)F [Compound 13]
did not inhibit	COc1ccc(-c2ncc(F)c(NC(C)(C)C(=O)NCC(F)(F)F)n2)cn1 [Compound 69]
did not inhibit	Nc1nc2ccc(-c3ncc(F)c(N4CCC[C@@H]4C(=O)NCC(F)(F)F)n3)cc2s1 [Compound 90]
did not inhibit	COc1ccc(-c2nccc(N3CCC[C@@H]3C(=O)NCC(F)(F)F)n2)cn1 [Compound 62]
did not inhibit	C[C@H](Nc1nc(-c2cccnc2Cl)ncc1F)C(=O)NCC(F)(F)F [Compound 5]
did not inhibit	O=C(CNc1nc(-c2ccc(F)nc2)ncc1F)NCC(F)(F)F [Compound 9]
did not inhibit	CC(C)(Nc1nc(-c2c[nH]c(C(=O)NCc3ccccc3)c2)ncc1F)C(=O)NCC(F)(F)F [Compound 95]
did not inhibit	COc1ccc(-c2ncc(F)c(NCC(=O)NCC(F)(F)F)n2)cn1 [Compound 10]
did not inhibit	CC(=O)Nc1nc2ccc(-c3ncc(F)c(N4CCC[C@@H]4C(=O)NCC(F)(F)F)n3)cc2s1 [Compound 92]
